Results on 1 compound are retold here after patent US9700578B2, “Use of nitrite salts for the treatment of cardiovascular conditions” (The United States of America as represented by the …, priority 2003, dated 2017).

SMILES strings stand for the structures. Where “and” joins values, the source holds several entries; their conditions need not be identical. Identical values can stand only once. Like-named read-outs stand apart in the source and are kept apart here.

In data set [1] the test system is hepatic ischemia-reperfusion injury. Put plainly: Hepatic ischemia-reperfusion (I/R) injury. In kind it is in vivo, mice. The method, then: Carboxy-PTIO [2-(4-Carboxyphenyl)-4,4,5,5-tetramethylimidazoline-1-oxyl-3-oxide potassium salt], a direct intravascular NO scavenger, was utilized to inhibit NO dependent effects following hepatic I/R injury. Carboxy-PTIO (Alexis Biochemicals) was dissolved in phosphate buffered saline and administered intravenously at a dose of 1 mg/Kg in a volume of 50 μL at 30 minutes prior to hepatic ischemia Zinc(II) Deuteroporphyrin IX-2,4-bisethyleneglycol (ZnDBG) (Alexis Biochemicals), a heme oxygenase-1 inhibitor was injected i.p. at a dose of 10 mg/Kg in a volume of 50 μL at 30 minutes prior to the induction of hepatic ischemia.
All of the mice utilized in the present studies were C57BL6/J at 8-10 weeks of age obtained from the Jackson Laboratories (Bar Harbor, Me.). In additional experiments of hepatic I/R injury we utilized mice completely deficient (−/−) in endothelial nitric oxide synthase (eNOS). eNOS−/− mice were originally generously donated from Dr. Paul Huang (Mass. General Hospital) and generated in our breeding colony at LSU-Health Sciences Center. eNOS−/− mice were utilized at 8-10 weeks of age.
The hepatic I/R protocol is depicted in FIG. 6A and has been described previously (Hines et al., Biochem Biophys Res Commun 284:972-976, 2001; Hines et al., Am J Physiol Gastrointest Liver Physiol 284:G536-545, 2001). Mice were anesthetized with the combination of ketamine (100 mg/kg) and zylazine (8 mg/kg) and a midline laparotomy was performed to expose the liver. Mice were then injected with heparin (100 μg/kg, i.p.) to prevent blood clotting. The left lateral and median lobes of the liver were rendered ischemic by completely clamping the hepatic artery and the portal vein using microaneurysm clamps. This experimental model results in a segmental (70%) hepatic ischemia. This method of partial ischemia prevents mesenteric venous congestion by allowing portal decompression throughout the right and caudate lobes of the liver. The liver was then repositioned in the peritoneal cavity in its original location for 45 minutes. The liver was kept moist using gauze soaked in 0.9% normal saline. In addition, body temperature was maintained at 37° C. using a heat lamp and monitoring body temperature with a rectal temperature probe. Sham surgeries were identical except that hepatic blood flow was not reduced with a microaneurysm clamp. The duration of hepatic ischemia was 45 minutes in all experiments, following which the microaneurysm clamps were removed. The duration of hepatic reperfusion was 5 hours in the studies of serum liver transaminase levels (i.e., AST or ALT) and 24 hours for the studies of liver histopathology (such as hepatocellular infarction).
Serum samples were analyzed for aspartate aminotransferase (AST) and alanine aminotransferase (ALT) using a spectrophotometric method (Sigma Chemical Co., St. Louis, Mo.) (Harada et al., Proc Natl Acad Sci USA 100:739-744, 2003). These enzymes are liver specific and are released from the liver during injury (Hines et al., Biochem Biophys Res Commun 284:972-976, 2001; Hines et al., Am J Physiol Gastrointest Liver Physiol 284:G536-545, 2001). […]

Data set [2] has as its system myocardial ischemia-reperfusion injury. The method, then:
Briefly, mice were anesthetized with intraperitoneal injections of ketamine (50 mg/kg) and pentobarbital sodium (50 mg/kg). The animals were then attached to a surgical board with their ventral side up. […] The mice were supplemented with 100% oxygen via the ventilator side port. A median sternotomy was performed using an electric cautery and the proximal left main coronary artery was visualized and completely ligated with 7-0 silk suture mounted on a tapered needle (BV-1 ethicon). In the initial experiments of myocardial infarct size coronary occlusion was maintained for 30-minutes followed by removal of suture and reperfusion for 24 hours. […] In these experiments, two-dimensional echocardiography was performed at baseline and again at 48 hours of reperfusion.
At 24 hours of reperfusion, the mice were anesthetized as described previously, intubated, and connected to a rodent ventilator. A catheter (PE-10 tubing) was placed in the common carotid artery to allow for Evans Blue dye injection. A median sternotomy was performed and the left main coronary artery was re-ligated in the same location as before Evans Blue dye (1.2 mL of a 2.0% solution, Sigma Chemical Co.) was injected into the carotid artery catheter into the heart to delineate the ischemic zone from the nonischemic zone. The heart was rapidly excised and serially sectioned along the long axis in five, 1 mm thick sections that were then incubated in 1.0% 2,3,5-triphenyltetrazolium chloride (Sigma Chemical Co.) for 5 minutes at 37° C. to demarcate the viable and nonviable myocardium within the risk zone.
Ventricular parameters were measured using leading-edge technique. M-mode (sweep speed=200 mm/sec) echocardiograms were captured from parasternal, short and long-axis 2D views of the left ventricle (LV) at the mid-papillary level. LV percent fractional shortening (FS) was calculated according to the following equation: LV % FS=((LVEDD−LVESD)/LVEDD)×100. All data were calculated from 10 cardiac cycles per experiment.

In data set [3] the test system is U46619-induced normoxic pulmonary hypertension. Type of data set: in vivo. The conditions noted are these: normoxic, U46619 infusion, nebulized nitrite, n=6.
The target in the next data set is hemoglobin (Homo sapiens, UniProt P68871+P69905).
Data set [4] concerns deoxygenated erythrocytes.
The conditions of data set [5]: 48 nmoles of nitrite, n=3; before 594±83.
Data set [6] relates to hypoxic-induced pulmonary hypertension. The following applies: for decrease in pulmonary artery pressure from hypoxic level: FiO2 0.12, nebulized 270 μmol/minute for 20 minutes, n=7.
In a further data set the target is deoxyhemoglobin (Homo sapiens, UniProt P68871+P69905). The conditions noted are these: 25° C., pH 7.0; cited from earlier work.
Where [7] appears, read: 48 nmoles into left ventricular cavity 5 min prior to reperfusion, versus 48 nmoles nitrate.
[8] abbreviates: 45 minutes ischemia, 48 hours reperfusion.
Where [9] appears, read: 200 μM regional concentration, transit time less than 10 seconds.

Take `O=NO` [sodium nitrite]: the “calculated blood level at which a protective effect was observed” value in data set [1] (1.2 nmoles added nitrite) is 600 nM. The “calculated systemic concentration of peak effect on AST and ALT” value in data set [1] (48 nmoles added nitrite, 2 mL blood volume) was 24 µM. Moreover, the “hepatocellular injury (histopathology) at 24 hours of reperfusion” value in data set [1] (24 μM (48 nmoles), versus saline and nitrate treated animals) was “significantly reduced”. Besides, the “hepatocellular apoptosis (TUNEL)” value in data set [1] (45 minutes ischemia, 24 hours reperfusion) was “significantly (p<0.001) attenuated”. In data set [1] (heme oxygenase 1 inhibitor pre-treatment, nitrite 24 μM), the “tissue injury in mice pre-treated with ZnDPBG (serum AST)” value is recorded as “significantly limited tissue injury”. Moreover, the “near-physiological nitrite concentration with highly significant protective effects” value in data set [1] (hepatic I/R) was 0.6 μM. Also, the “serum elevations of liver transaminases AST and ALT” value in data set [1] (intraperitoneal during hepatic ischemia, 45 min ischemia, 5 h reperfusion, nitrite 1.2-480 nmoles, nitrate 48 nmoles) is “dose-dependently limited”. Also, in data set [1] (mouse, in vivo), the “cytoprotection in eNOS deficient mice (serum AST)” value was “significant nitrite cytoprotection”. In data set [2] (setting [7]), the “reduction of myocardial infarct size per area-at-risk” value is reported as 67% and the “reduction of myocardial infarct size per left ventricle” value is reported as 67%. In data set [2] (setting [8]), the “left ventricular fractional shortening versus vehicle group” value was “significantly (p<0.02) greater” and the “myocardial ejection fraction versus baseline” value is “remained essentially unchanged”. The “decrease in pulmonary artery pressure from infusion baseline” value in data set [3] is reported as 23±6%. Besides, the “iron-nitrosylated-hemoglobin in the ipsilateral antecubital vein during nitrite infusion” value on hemoglobin (36 μmol/min, at rest, baseline 55.7±11.4) was 693.4 ± 216.9 nM. For the same compound, at hemoglobin (setting [9]), the “SNO-Hb produced across the forearm during exercise” value was approximately 200 nM and the “iron-nitrosyl-hemoglobin produced across the forearm during exercise” value is “approximately 750 nM”. Also, in data set [4] (21% and 100% oxygen, versus deoxygenated erythrocytes), the “NO release on addition to oxygenated erythrocytes” value is reported as “significantly less NO”. The “rate of NO production in the 5 mL reaction volume” value in data set [4] (100 and 200 μM nitrite, deoxygenated erythrocytes 660 and 1000 μM in heme, helium purged) was 47 pM per second. In data set [4] (PBS, same conditions), the “NO release into the gas phase in buffer control” value is “no release”. In data set [5], the “blood nitrite level after treatment” value was determined as 727 ± 40 nM. Further, in data set [6], the “decrease in pulmonary artery pressure from hypoxic level” value is listed as approximately 60%. In addition, the “decrease in pulmonary artery pressure from hypoxic level” value in data set [6] (listed as nitrite) is ~60% and 63+/−3%. The “cardiac output, arterial oxyhemoglobin saturation and methemoglobin levels” value in data set [6] (versus preceding ten minutes of hypoxia) was “did not change measurably”. The “rate constant of nitrite reduction to NO and methemoglobin” value on deoxyhemoglobin is 2.9 M⁻¹ s⁻¹.
